Test results published in ChEMBL document CHEMBL1149882, “Sesterterpenoids from the sponge Sarcotragus sp” (J Nat Prod, 2008).
Converted amounts (≈) assume the structure as drawn.

Columns and labels:
Bacillus subtilis = assay: Antimicrobial activity against Bacillus subtilis ATCC 6633; assay type: functional
Staphylococcus aureus [1] = assay: Antimicrobial activity against methicillin-resistant Staphylococcus aureus ATCC 700787; assay type: functional
Micrococcus luteus = assay: Antimicrobial activity against Micrococcus luteus IFC12708; assay type: functional
Isocitrate lyase = Isocitrate lyase (Candida albicans, UniProt Q9P8Q7); assay: Inhibition of Candida albicans isocitrate lyase
Sequence of Isocitrate lyase (Q9P8Q7 whole entry): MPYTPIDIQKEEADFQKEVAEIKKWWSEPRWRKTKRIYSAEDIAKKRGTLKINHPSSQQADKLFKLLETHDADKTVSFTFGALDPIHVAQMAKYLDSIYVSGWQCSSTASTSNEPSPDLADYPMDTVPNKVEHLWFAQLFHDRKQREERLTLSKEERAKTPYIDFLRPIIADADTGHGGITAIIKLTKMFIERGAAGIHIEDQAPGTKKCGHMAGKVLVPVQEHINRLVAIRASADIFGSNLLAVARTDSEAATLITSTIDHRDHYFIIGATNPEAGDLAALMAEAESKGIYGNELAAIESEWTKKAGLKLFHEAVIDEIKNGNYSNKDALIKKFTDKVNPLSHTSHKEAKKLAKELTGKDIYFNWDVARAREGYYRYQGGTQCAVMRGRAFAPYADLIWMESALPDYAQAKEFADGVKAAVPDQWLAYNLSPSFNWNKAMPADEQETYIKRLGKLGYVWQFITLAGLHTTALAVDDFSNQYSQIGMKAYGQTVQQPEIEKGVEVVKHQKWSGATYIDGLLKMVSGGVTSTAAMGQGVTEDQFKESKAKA

Escherichia coli = assay: Antimicrobial activity against Escherichia coli ATCC 11775; assay type: functional
Staphylococcus aureus [2] = assay: Antimicrobial activity against Staphylococcus aureus ATCC 65389; assay type: functional
K562 = assay: Cytotoxicity against human K562 cells by MTT assay; assay type: functional; settings: read-out: LC50 (the source's name)
Proteus vulgaris = assay: Antimicrobial activity against Proteus vulgaris ATCC 3851; assay type: functional
Staphylococcus aureus [3] = assay: Antimicrobial activity against methicillin-resistant Staphylococcus aureus ATCC 43300; assay type: functional
Staphylococcus aureus [4] = assay: Antimicrobial activity against methicillin-resistant Staphylococcus aureus ATCC 700788; assay type: functional
Salmonella typhimurium = assay: Antimicrobial activity against Salmonella Typhimurium ATCC 14028; assay type: functional, Salmonella enterica subsp. enterica serovar Typhimurium; settings: Salmonella enterica

| SMILES | MIC (Bacillus subtilis) [µg/mL] | MIC (Staphylococcus aureus [1]) [µg/mL] | MIC (Micrococcus luteus) [µg/mL] | IC50 (Isocitrate lyase) [µM] | MIC (Escherichia coli) [µg/mL] | MIC (Staphylococcus aureus [2]) [µg/mL] | CC50 (K562) [µg/mL] | MIC (Proteus vulgaris) [µg/mL] | MIC (Staphylococcus aureus [3]) [µg/mL] | MIC (Staphylococcus aureus [4]) [µg/mL] | MIC (Salmonella typhimurium) [µg/mL] |
| --- | --- | --- | --- | --- | --- | --- | --- | --- | --- | --- | --- |
| COC1C=C(CC/C=C(\C)CC/C=C(\C)CCC[C@@H](C)/C=C2\OC(=O)C(C)=C2O)C(OC)O1 (stereo not given in full) | 50 (≈ 109 µM) | 50 (≈ 109 µM) | 50 (≈ 109 µM) | 91.4 | > 100 | 100 (≈ 217 µM) | 80 (≈ 174 µM) | 100 (≈ 217 µM) | 50 (≈ 109 µM) | 100 (≈ 217 µM) | > 100 |
| CC1(C)S[C@@H]2[C@H](NC(=O)[C@H](N)c3ccccc3)C(=O)N2[C@H]1C(=O)O [AMPICILLIN] | 3.12 (≈ 8.94 µM) |  | 12.5 (≈ 35.8 µM) |  | 1.56 (≈ 4.47 µM) | 1.56 (≈ 4.47 µM) |  | 3.12 (≈ 8.94 µM) |  |  | 1.56 (≈ 4.47 µM) |
| COC(=O)C(C)(O)[C@@](O)(C[C@H](C)CC/C=C(/C)CC/C=C(/C)CCCc1ccoc1)C(=O)OC (stereo not given in full) | > 100 | > 100 | 50 (≈ 104 µM) | 253 | > 100 | > 100 | 46 (≈ 96.1 µM) | > 100 | > 100 | > 100 | > 100 |
| CC1=C(O)/C(=C/[C@H](C)CCC/C(C)=C/CC/C(C)=C/CCC2=CC(O)OC2=O)OC1=O (stereo not given in full) | > 100 | > 100 | 50 (≈ 116 µM) | 29 | > 100 | > 100 | > 100 | > 100 | > 100 | > 100 | > 100 |
| Cc1onc(-c2ccccc2)c1C(=O)N[C@@H]1C(=O)N2[C@@H]1SC(C)(C)[C@@H]2C(=O)O [OXACILLIN] |  | 50 (≈ 125 µM) |  |  |  |  |  |  | 25 (≈ 62.3 µM) | 25 (≈ 62.3 µM) |  |
| C/C(=C/CC[C@@H](C)CC(=O)O)CC/C=C(/C)CCCc1ccoc1 | 25 (≈ 75.2 µM) | 25 (≈ 75.2 µM) | 6.25 (≈ 18.8 µM) | 241 | > 100 | 25 (≈ 75.2 µM) | > 100 | 25 (≈ 75.2 µM) | 12.5 (≈ 37.6 µM) | 25 (≈ 75.2 µM) | 12.5 (≈ 37.6 µM) |
| COC(=O)C(C)(O)[C@](O)(C[C@H](C)CC/C=C(/C)CC/C=C(/C)CCCC1=CCN(CC(=O)O)C1=O)C(=O)OC (stereo not given in full) | > 100 | > 100 | > 100 | 358 | > 100 | > 100 | > 100 | > 100 | > 100 | > 100 | > 100 |
| COC(=O)C(C)(O)[C@](O)(C[C@H](C)CCC/C(C)=C/CC/C(C)=C/CCc1ccoc1)C(=O)OC (stereo not given in full) | > 100 | > 100 | 100 (≈ 209 µM) | > 418 | > 100 | > 100 | 20 (≈ 41.8 µM) | > 100 | > 100 | > 100 | > 100 |
| C/C(=C/CC[C@@H](C)CC(=O)O)CC/C=C(/C)CCCC1=CC(=O)OC1=O | > 100 | > 100 | 100 (≈ 276 µM) | 54.9 | > 100 | > 100 | > 100 | > 100 | > 100 | > 100 | > 100 |
| CC1=C(O)/C(=C/[C@H](C)CC/C=C(/C)CC/C=C(/C)CCCC2=CC(O)OC2=O)OC1=O (stereo not given in full) | > 100 | > 100 | 100 (≈ 232 µM) |  | > 100 | > 100 | > 100 | > 100 | > 100 | > 100 | > 100 |
| CC1=C(O)/C(=C/[C@H](C)CC/C=C(/C)CC/C=C(/C)CCCC2=CC(=O)OC2O)OC1=O (stereo not given in full) | > 100 | 100 (≈ 232 µM) | 50 (≈ 116 µM) | 91.5 | > 100 | > 100 | > 100 | > 100 | 100 (≈ 232 µM) | > 100 | > 100 |
| COC(=O)C(C)(O)[C@](O)(C[C@H](C)CCC/C(C)=C/CC/C(C)=C/CCC1=CCN(CC(=O)O)C1=O)C(=O)OC (stereo not given in full) | > 100 | > 100 | > 100 | > 363 | > 100 | > 100 | > 100 | > 100 | > 100 | > 100 | > 100 |
| CC1=C(O)/C(=C/[C@H](C)CCC/C(C)=C/CC/C(C)=C/CCc2ccoc2)OC1=O | 6.25 (≈ 15.7 µM) | 50 (≈ 125 µM) | 12.5 (≈ 31.4 µM) | 81.5 | > 100 | 12.5 (≈ 31.4 µM) | 39 (≈ 97.9 µM) | 12.5 (≈ 31.4 µM) | 50 (≈ 125 µM) | 50 (≈ 125 µM) | 25 (≈ 62.7 µM) |
| CC1=C(O)/C(=C/[C@H](C)CCC/C(C)=C/CCC(C)(O)CCCc2ccoc2)OC1=O (stereo not given in full) | > 100 | > 100 | 100 (≈ 240 µM) | 55.7 | > 100 | > 100 | > 100 | > 100 | 100 (≈ 240 µM) | > 100 | > 100 |
| COC(=O)C(C)(O)[C@](O)(C[C@H](C)CC/C=C(/C)CC/C=C(/C)CCCc1ccoc1)C(=O)OC (stereo not given in full) | > 100 | > 100 | > 100 | 188 | > 100 | > 100 | 34 (≈ 71 µM) | > 100 | > 100 | > 100 | > 100 |
| C/C(=C\CCc1ccoc1)CC/C=C(\C)CCC[C@@H](C)CC(=O)O | > 100 | 100 (≈ 301 µM) | 12.5 (≈ 37.6 µM) | > 602 | > 100 | 100 (≈ 301 µM) | > 100 | 50 (≈ 150 µM) | 25 (≈ 75.2 µM) | > 100 | 50 (≈ 150 µM) |
| COC1C=C(CCC/C(C)=C\CC/C(C)=C\CC[C@@H](C)/C=C2\OC(=O)C(C)=C2O)C(OC)O1 (stereo not given in full) | 50 (≈ 109 µM) | 100 (≈ 217 µM) | 50 (≈ 109 µM) | 95.1 | > 100 | 100 (≈ 217 µM) | 83 (≈ 180 µM) | > 100 | 100 (≈ 217 µM) | 100 (≈ 217 µM) | > 100 |
| CC1=C(O)/C(=C/[C@H](C)CC/C=C(/C)CC/C=C(/C)CCCc2ccoc2)OC1=O | 3.12 (≈ 7.84 µM) | 6.25 (≈ 15.7 µM) | 3.12 (≈ 7.84 µM) | 81.5 | > 100 | 3.12 (≈ 7.84 µM) | 62 (≈ 156 µM) | 6.25 (≈ 15.7 µM) | 6.25 (≈ 15.7 µM) | 12.5 (≈ 31.4 µM) | 6.25 (≈ 15.7 µM) |
| C=C(CC(=O)O)C(=O)O [ITACONATE] |  |  |  | 37.7 |  |  |  |  |  |  |  |
